Assay results reported in ChEMBL document CHEMBL1909046, “DrugMatrix in vitro pharmacology data”.

Assays:
[1] = DRUGMATRIX: Sigma2 radioligand binding (ligand: [3H] Ifenprodil); type: cell membranes, Rattus norvegicus, Wistar, Brain, Membrane; details: Not Active = under 50% inhibition at 10 µM
[2] = target: Sodium-dependent dopamine transporter (Homo sapiens, UniProt Q01959); experiment: DRUGMATRIX: Dopamine Transporter radioligand binding (ligand: [125I] RTI-55); type: cell membranes, CHO-K1, Membrane; details: cho-k1; Not Active = under 50% inhibition at 10 µM
[3] = DRUGMATRIX: Leukotriene, BLT (LTB4) radioligand binding (ligand: [3H]LTB4); type: cell membranes, Membrane; details: u-937; Not Active = under 50% inhibition at 10 µM
[4] = DRUGMATRIX: Phosphodiesterase PDE4 enzyme inhibition (substrate: [3H]cAMP + cAMP); details: u-937; Not Active = under 50% inhibition at 10 µM
[5] = target: Protein kinase C alpha type (Homo sapiens, UniProt P17252); type: cell-based; details: sf9;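 also: inhibition of PKCalpha kinase activity measured in an enzyme assay with histone as the phosphorylation substrate; in other assays of this panel Not Active means under 50% inhibition at 10 µM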
[6] = target: Mitogen-activated protein kinase 1 (Homo sapiens, UniProt P28482); experiment: DRUGMATRIX: Protein Serine/Threonine Kinase, ERK2 enzyme inhibition (substrate: Myelin Basic Protein); design: species or system Escherichia coli; details: Not Active = under 50% inhibition at 10 µM
Chain of Mitogen-activated protein kinase 1 (P28482 whole entry): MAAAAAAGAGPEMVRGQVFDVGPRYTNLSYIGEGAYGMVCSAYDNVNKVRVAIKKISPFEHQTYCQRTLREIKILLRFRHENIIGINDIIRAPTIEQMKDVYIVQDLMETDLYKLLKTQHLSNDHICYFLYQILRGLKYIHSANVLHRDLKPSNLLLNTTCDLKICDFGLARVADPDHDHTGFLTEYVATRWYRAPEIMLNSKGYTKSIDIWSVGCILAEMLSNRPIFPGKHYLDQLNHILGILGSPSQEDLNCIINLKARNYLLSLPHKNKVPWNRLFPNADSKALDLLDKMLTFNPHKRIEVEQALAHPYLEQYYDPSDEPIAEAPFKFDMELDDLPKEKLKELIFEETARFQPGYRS

Chain of Sodium-dependent dopamine transporter (Q01959 whole entry): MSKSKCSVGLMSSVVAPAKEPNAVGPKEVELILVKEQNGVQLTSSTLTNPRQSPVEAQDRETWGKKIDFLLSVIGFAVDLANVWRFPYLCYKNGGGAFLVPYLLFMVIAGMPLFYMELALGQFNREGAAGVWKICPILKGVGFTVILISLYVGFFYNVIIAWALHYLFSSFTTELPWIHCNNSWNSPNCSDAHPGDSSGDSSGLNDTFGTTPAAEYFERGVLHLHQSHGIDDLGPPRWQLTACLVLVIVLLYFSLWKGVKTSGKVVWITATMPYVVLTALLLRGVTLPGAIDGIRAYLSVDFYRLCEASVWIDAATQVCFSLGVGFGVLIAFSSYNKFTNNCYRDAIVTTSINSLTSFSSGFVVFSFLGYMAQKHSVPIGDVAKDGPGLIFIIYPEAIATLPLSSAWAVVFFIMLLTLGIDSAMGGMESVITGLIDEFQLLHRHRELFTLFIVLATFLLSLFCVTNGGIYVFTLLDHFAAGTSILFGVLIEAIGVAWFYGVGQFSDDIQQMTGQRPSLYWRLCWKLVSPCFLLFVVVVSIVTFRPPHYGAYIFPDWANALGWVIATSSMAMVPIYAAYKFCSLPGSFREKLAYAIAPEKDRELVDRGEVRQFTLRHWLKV

## Cn1c(=O)c2nc[nH]c2n(C)c1=O.O [THEOPHYLLINE]
[1]
  IC50: Not Active
  Ki: Not Active
[2]
  IC50: Not Active
[3]
  IC50: Not Active
  Ki: Not Active
[4]
  IC50: Not Active
  Ki: Not Active
[5]
  IC50: Not Active
[6]
  IC50: Not Active

## CS(=O)(=O)c1ccc([C@@H](O)[C@@H](CO)NC(=O)C(Cl)Cl)cc1 [THIAMPHENICOL]
[1]
  IC50: Not Active
  Ki: Not Active
[2]
  IC50: Not Active
[3]
  IC50: Not Active
  Ki: Not Active
[4]
  IC50: Not Active
  Ki: Not Active
[5]
  IC50: Not Active
[6]
  IC50: Not Active

## CCN(CC)CCNC(=O)c1cc(S(C)(=O)=O)ccc1OC [TIAPRIDE]
[1]
  IC50: Not Active
  Ki: Not Active
[2]
  IC50: Not Active
[3]
  IC50: Not Active
  Ki: Not Active
[4]
  IC50: Not Active
  Ki: Not Active
[5]
  IC50: Not Active
[6]
  IC50: Not Active

## Clc1ccccc1CN1CCc2sccc2C1 [TICLOPIDINE]
[1]; read-out: IC50
  IC50: 3.26 µM
[1]; read-out: Ki
  Ki: 2.01 µM
[2]
  IC50: Not Active
[3]
  IC50: Not Active
  Ki: Not Active
[4]
  IC50: Not Active
  Ki: Not Active
[5]
  IC50: Not Active
[6]
  IC50: Not Active

## NC1CCN(c2nc3c(cc2F)c(=O)c(C(=O)O)cn3-c2ccc(F)cc2F)C1 (configuration not stated) [TOSUFLOXACIN]
[1]
  IC50: Not Active
  Ki: Not Active
[2]
  IC50: Not Active
[3]
  IC50: Not Active
  Ki: Not Active
[4]
  IC50: Not Active
  Ki: Not Active
[5]
  IC50: Not Active
[6]
  IC50: Not Active

## O=C(Nc1ccc(Br)cc1)c1cc(Br)cc(Br)c1O [TRIBROMSALAN]
[1]
  IC50: Not Active
  Ki: Not Active
[2]
  IC50: Not Active
[3]
  IC50: Not Active
  Ki: Not Active
[4]
  IC50: Not Active
  Ki: Not Active
[5]
  IC50: Not Active
[6]; read-out: IC50
  IC50: 0.623 µM

## CC(c1cc2ccccc2s1)N(O)C(N)=O (configuration not stated) [ZILEUTON]
[1]
  IC50: Not Active
  Ki: Not Active
[2]
  IC50: Not Active
[3]
  IC50: Not Active
  Ki: Not Active
[4]
  IC50: Not Active
  Ki: Not Active
[5]
  IC50: Not Active
[6]
  IC50: Not Active

## MANGANESE CHLORIDE ANHYDROUS
[1]
  IC50: Not Active
  Ki: Not Active
[2]
  IC50: Not Active
  Ki: Not Active
[3]
  IC50: Not Active
  Ki: Not Active
[4]
  IC50: Not Active
  Ki: Not Active
[5]
  IC50: Not Active
  Ki: Not Active
[6]
  IC50: Not Active
  Ki: Not Active

## SODIUM ORTHOVANAD
[1]
  IC50: Not Active
  Ki: Not Active
[2]
  IC50: Not Active
  Ki: Not Active
[3]
  IC50: Not Active
  Ki: Not Active
[4]
  IC50: Not Active
  Ki: Not Active
[5]
  IC50: Not Active
  Ki: Not Active
[6]
  IC50: Not Active
  Ki: Not Active
